Assay results: patent publication US8623924B2, “Compositions and methods for modulating metabolic pathways” (Nusirt Sciences, Inc., priority 2011, dated 2014)
Marks after values point to notes of the source that are not given here.

Legend:
SIRT1 [1] = molecular target: T1, SIRT1 (Homo sapiens, UniProt Q96EB6); assay: SIRT1 activity, cell-free fluorimetric deacetylation assay; type: biochemical; details: cell-free system
T1 construct: purchased ENZO Life Sciences International, Inc. BML-AK555
T1 sequence (Q96EB6 1-747): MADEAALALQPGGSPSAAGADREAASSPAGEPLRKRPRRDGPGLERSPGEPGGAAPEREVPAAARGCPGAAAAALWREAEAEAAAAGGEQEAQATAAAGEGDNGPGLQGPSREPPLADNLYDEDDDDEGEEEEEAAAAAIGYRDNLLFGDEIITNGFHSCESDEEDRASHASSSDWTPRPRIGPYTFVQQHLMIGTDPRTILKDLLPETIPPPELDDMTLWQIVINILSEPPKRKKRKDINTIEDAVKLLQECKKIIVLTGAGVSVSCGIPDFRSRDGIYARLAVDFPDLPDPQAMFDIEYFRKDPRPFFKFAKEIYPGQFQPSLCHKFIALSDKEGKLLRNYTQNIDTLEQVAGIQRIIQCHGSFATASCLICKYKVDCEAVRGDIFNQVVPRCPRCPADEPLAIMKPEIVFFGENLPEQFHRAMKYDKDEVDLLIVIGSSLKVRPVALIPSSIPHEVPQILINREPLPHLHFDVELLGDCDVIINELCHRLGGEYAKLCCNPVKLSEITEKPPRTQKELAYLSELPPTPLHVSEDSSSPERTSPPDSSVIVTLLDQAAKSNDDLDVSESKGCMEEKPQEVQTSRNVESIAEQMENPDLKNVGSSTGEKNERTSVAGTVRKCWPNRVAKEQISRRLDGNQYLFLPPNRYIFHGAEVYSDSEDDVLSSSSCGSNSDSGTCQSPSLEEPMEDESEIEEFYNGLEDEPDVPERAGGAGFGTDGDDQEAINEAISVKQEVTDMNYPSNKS
Procedure: SIRT1 activity was measured by using the SIRT1 Fluorimetric Drug Discovery Kit (BML-AK555, ENZO Life Sciences International, Inc. PA, USA). In this assay, SIRT1 activity is assessed by the degree of deacetylation of a standardized substrate containing an acetylated lysine side chain. The substrate utilized is a peptide containing amino acids 379-382 of human p53 (Arg-His-Lys-Lys[Ac]), an established target of SIRT1 activity; SIRT1 activity is directly proportional to the degree of deacetylation of Lys-382. Samples were incubated with peptide substrate (25 μM), and NAD^+ (500 μM) in a phosphate-buffered saline solution at 37° C. on a horizontal shaker for 45 minutes. The reaction was stopped with the addition of 2 mM nicotinamide and a developing solution that binds to the deacetylated lysine to form a fluorophore. Following 10 minutes incubation at 37° C., fluorescence was read in a plate-reading fluorometer at an excitation wavelength of 360 nm and an emission wavelength of 450 nm. […] A standard curve was constructed using deacetylated substrate (0-10 μM).

[2] = Body weight, weight gain and visceral adiposity in diet-induced obese mice; type: in vivo; details: 6 weeks on diet, low resveratrol 12.5 mg/kg diet, low HMB 2 g CaHMB/kg diet, high HMB 10 g CaHMB/kg diet, leucine 2.42% of diet
Source text: Six week old male c57/BL6 mice were fed a high-fat diet with fat increased to 45% of energy (Research Diets D12451) for 6 weeks to induce obesity.
At the of the treatment period (6 weeks) all animals were humanely euthanized, and blood and tissues collected for further experiments.

IL-6 = assay: Inflammatory biomarker IL-6 in diet-induced obese mice; type: in vivo; details: 6 weeks on diet, low resveratrol 12.5 mg/kg diet, low HMB 2 g CaHMB/kg diet, high HMB 10 g CaHMB/kg diet, leucine 2.42% of diet
Sirt1 [3] = molecular target: T2, Sirt1 (Mus musculus, UniProt Q923E4); assay: Adipose tissue Sirt1 activity in diet-induced obese mice; type: in vivo; details: low dose of resveratrol, HMB, or their combinations with HMB or leucine (FIG. 10)
T2 construct: from tissue; host or cells: adipose tissue of c57/BL6 mice
T2 sequence (Q923E4 1-737): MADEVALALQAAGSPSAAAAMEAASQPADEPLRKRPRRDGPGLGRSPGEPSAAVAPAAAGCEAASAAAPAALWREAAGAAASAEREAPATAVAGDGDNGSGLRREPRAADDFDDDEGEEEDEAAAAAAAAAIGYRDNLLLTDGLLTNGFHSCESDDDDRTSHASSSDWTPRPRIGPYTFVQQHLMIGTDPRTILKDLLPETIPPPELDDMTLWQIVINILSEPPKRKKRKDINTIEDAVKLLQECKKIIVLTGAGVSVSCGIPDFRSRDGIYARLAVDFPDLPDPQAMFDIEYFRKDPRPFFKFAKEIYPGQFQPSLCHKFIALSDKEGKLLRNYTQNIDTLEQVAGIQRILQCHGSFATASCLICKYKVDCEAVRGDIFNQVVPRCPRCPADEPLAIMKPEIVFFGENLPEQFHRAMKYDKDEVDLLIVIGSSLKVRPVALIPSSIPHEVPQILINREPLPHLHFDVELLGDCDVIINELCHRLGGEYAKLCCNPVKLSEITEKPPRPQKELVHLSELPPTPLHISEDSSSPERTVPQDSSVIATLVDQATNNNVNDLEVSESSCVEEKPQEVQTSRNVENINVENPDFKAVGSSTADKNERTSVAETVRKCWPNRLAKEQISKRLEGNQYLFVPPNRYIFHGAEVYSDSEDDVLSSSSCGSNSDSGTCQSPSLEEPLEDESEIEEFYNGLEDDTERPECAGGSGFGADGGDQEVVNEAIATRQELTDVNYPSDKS

In the case of CC(C)(O)CC(=O)O [HMB], the SIRT1 activity (SIRT1 [1]) is reported as “significantly increased SIRT1 activity”, the “Visceral Adipose Volume (mm^3)” value [2] is reported as 6184 ± 460^a mm^3 and the “Weight (g)” value [2] is reported as 40.3 ± 2.1^a g. The “Weight gain” value [2] was 22.5 ± 1.2 g, the “IL-6 (pg/mL)” value (IL-6) was 19.9 ± 3.1^a pg/mL and the “adipose tissue Sirt1 activity” value (Sirt1 [3]) was “Neither resveratrol nor HMB exerted significant independent effects”.
